Drawing on patent US10179769B2, “Histone demethylase inhibitors” (CELGENE QUANTICEL RESEARCH, INC., priority 2012, dated 2019), this text covers IC50 for 3 substances.

This assay addresses JMJD2C (Homo sapiens (Human), UniProt Q9H3R0). Kind of assay: JMJD2C TR-FRET enzyme inhibition assay. The class given is biochemical. The conditions noted are these: H3K9me3-biotin peptide. The text has this: This assay determines the ability of a test compound to inhibit Jarid1A, Jarid1B, and JMJD2C demethylase activity. Baculovirus expressed Jarid1A (GenBank Accession #NM_001042603, AA1-1090) was purchased from BPS Bioscience (Cat#50110). Baculovirus expressed Jarid1B (GenBank Accession #NM_006618, AA 2-751) was purchased from BPS Bioscience (Cat #50121) or custom made by MolecularThroughput. Baculovirus-expressed JMJD2C (GenBank Accession #BC143571, AA 2-372) was purchased from BPS Bioscience (Cat#50105).
The ability of test compounds to inhibit the activity of JMJD2C was determined in 384-well plate format under the following reaction conditions: 0.3 nM JMJD2C, 300 nM H3K9me3-biotin labeled peptide (Anaspec cat #64360), 2 μM alpha-ketoglutaric acid in assay buffer of 50 mM HEPES, pH7.3, 0.005% Brij35, 0.5 mM TCEP, 0.2 mg/ml BSA, 50 μM sodium L-ascorbate, and 2 μM ammonium iron(II) sulfate. Reaction product was determined quantitatively by TR-FRET after the addition of detection reagent Phycolink Streptavidin-allophycocyanin (Prozyme) and Europium-anti-di-methylated histone H3 lysine 9 (H3K9me2) antibody (PerkinElmer) in the presence of 5 mM EDTA in LANCE detection buffer (PerkinElmer) at a final concentration of 50 nM and 1 nM, respectively.
The reaction mixture was incubated at room temperature for 30 min, and terminated by the addition of 6 μl of 5 mM EDTA in LANCE detection buffer containing 100 nM Phycolink Streptavidin-allophycocyanin and 2 nM Europium-anti-H3K9me2 antibody. Plates were read by EnVisionMultilabel Reader in TR-FRET mode (excitation at 320 nm, emission at 615 nm and 665 nm) after 1 hr incubation at rt. A ratio was calculated (665/615) for each well and fitted to determine inhibition constant (IC50).
On the technique in general: Time-resolved FRET reads energy transfer from a long-lived donor to a nearby acceptor.

Sequence of JMJD2C (Q9H3R0 2-372): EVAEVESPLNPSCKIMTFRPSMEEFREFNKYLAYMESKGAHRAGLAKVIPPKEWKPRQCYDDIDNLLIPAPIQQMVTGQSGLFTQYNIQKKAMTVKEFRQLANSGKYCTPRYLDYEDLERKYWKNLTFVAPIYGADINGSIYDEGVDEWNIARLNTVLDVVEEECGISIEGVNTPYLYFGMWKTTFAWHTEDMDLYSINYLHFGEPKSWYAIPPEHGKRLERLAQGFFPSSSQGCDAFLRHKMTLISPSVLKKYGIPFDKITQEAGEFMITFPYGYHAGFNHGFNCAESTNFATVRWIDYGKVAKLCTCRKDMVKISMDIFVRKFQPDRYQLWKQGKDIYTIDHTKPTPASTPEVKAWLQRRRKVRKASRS

Broadly, the IC50 is the concentration that gives 50% inhibition. Higher therefore signals weaker potency in that assay. As for “3-{[(6-chloro-1-hydroxy-1,2,3,4- tetrahydronaphthalen-1-yl)methyl]amino} pyridine-4-carboxylic acid [Example 67]”, the IC50 was 100 to 1000 nM. The result for “3-{[(7-fluoro-3,4-dihydro-2H-chromen-4- yl)methyl]-amino}pyridine-4-carboxylic acid [Example 65]” reads less than 100 nM. As for “3-{[(6-chloro-1,2,3,4-tetrahydronaphthalen- 1-yl)methyl]-amino}pyridine-4- carboxylic acid [Example 68]”, the IC50 is 100 to 1000 nM.
